Experimental data published in ChEMBL document CHEMBL1124506, “Synthesis and antimicrobial properties of substituted beta-aminoxypropionyl penicillins and cephalosporins” (1989).
In brackets after ≈: the same amount, converted by molar mass.

Tests used:
Format in all cases: functional
[1] = Inhibition of gram negative (resistant) growth.
Staphylococcus aureus = assay: Inhibition of gram positive (resistant) bacteria growth.
[2] = Inhibition of gram positive bacteria growth.
[3] = Inhibition of gram negative bacteria growth.

Compound	MIC [1]	MIC (Staphylococcus aureus)	MIC [2]	MIC [3]
CC1(C)SC2C(NC(=O)CCON=C3CCCC3)C(=O)N2[C@H]1C(=O)[O-].[K+] (some centres undefined)	> 200 µg/mL	25 µg/mL	0.06 µg/mL	53 µg/mL
CC(=O)OCC1=C(C(=O)[O-])N2C(=O)C(NC(=O)CCO/N=C(\C)c3ccc(Cl)cc3)C2SC1.[K+] (centres undefined)	> 200 µg/mL	4 µg/mL	0.25 µg/mL	151 µg/mL
CCCC(CCC)=NOCCC(=O)NC1C(=O)N2C(C(=O)O)=C(C)CSC12 (centres undefined)	> 200 µg/mL	100 µg/mL (≈ 252 µM)	16.4 µg/mL (≈ 41.3 µM)	> 200 µg/mL
CC1(C)SC2C(NC(=O)CCON=C3CCCCC3)C(=O)N2[C@H]1C(=O)[O-].[K+] (some centres undefined)	> 200 µg/mL	25 µg/mL	0.2 µg/mL	107 µg/mL
CC(=O)OCC1=C(C(=O)O)N2C(=O)C(NC(=O)CCON=C3c4ccccc4-c4ccccc43)C2SC1 (centres undefined)	> 100 µg/mL	0.25 µg/mL (≈ 0.479 µM)	0.02 µg/mL (≈ 0.0383 µM)	44 µg/mL (≈ 84.4 µM)
CC(=O)OCC1=C(C(=O)O)N2C(=O)C(NC(=O)CCON=C(C)C)C2SC1 (centres undefined)	> 200 µg/mL	6.2 µg/mL (≈ 15.5 µM)	1.7 µg/mL (≈ 4.26 µM)	174 µg/mL (≈ 436 µM)
CC(=O)OCC1=C(C(=O)O)N2C(=O)C(NC(=O)Cc3ccccc3)C2SC1 (centres undefined)	> 200 µg/mL	12.6 µg/mL (≈ 32.3 µM)	1.06 µg/mL (≈ 2.72 µM)	29 µg/mL (≈ 74.3 µM)
CC(=O)OCC1=C(C(=O)O)N2C(=O)C(NC(=O)CCON=C3CCCCC3)C2SC1 (centres undefined)	> 200 µg/mL	1.9 µg/mL (≈ 4.32 µM)	0.5 µg/mL (≈ 1.14 µM)	174 µg/mL (≈ 396 µM)
CC(=O)OCC1=C(C(=O)O)N2C(=O)C(NC(=O)CCO/N=C\c3ccccc3)C2SC1 (centres undefined)	> 200 µg/mL	4 µg/mL (≈ 8.94 µM)	0.22 µg/mL (≈ 0.492 µM)	71 µg/mL (≈ 159 µM)
CC1=C(C(=O)O)N2C(=O)C(NC(=O)Cc3ccccc3)C2SC1 (centres undefined)	> 200 µg/mL	200 µg/mL (≈ 602 µM)	6.2 µg/mL (≈ 18.7 µM)	123 µg/mL (≈ 370 µM)
CC1=C(C(=O)O)N2C(=O)C(NC(=O)CCO/N=C(\C)c3ccc(Cl)cc3)C2SC1 (centres undefined)	> 200 µg/mL	63 µg/mL (≈ 144 µM)	4.7 µg/mL (≈ 10.7 µM)	> 200 µg/mL
CC1(C)SC2C(NC(=O)CCO/N=C/c3ccccc3)C(=O)N2[C@H]1C(=O)[O-].[K+] (some centres undefined)	> 200 µg/mL	50 µg/mL	0.1 µg/mL	136 µg/mL
CC1=C(C(=O)O)N2C(=O)C(NC(=O)CCON=C3CCCCC3)C2SC1 (centres undefined)	> 200 µg/mL	79 µg/mL (≈ 207 µM)	7.3 µg/mL (≈ 19.1 µM)	131 µg/mL (≈ 343 µM)
CC1=C(C(=O)O)N2C(=O)C(NC(=O)CCO/N=C\c3ccccc3)C2SC1 (centres undefined)	> 200 µg/mL	79 µg/mL (≈ 203 µM)	8.2 µg/mL (≈ 21.1 µM)	> 200 µg/mL
CC1=C(C(=O)O)N2C(=O)C(NC(=O)CCON=C3CCCC3)C2SC1 (centres undefined)	> 200 µg/mL	79 µg/mL (≈ 215 µM)	9.1 µg/mL (≈ 24.8 µM)	131 µg/mL (≈ 357 µM)
CCCC(CCC)=NOCCC(=O)NC1C(=O)N2C(C(=O)O)=C(COC(C)=O)CSC12 (centres undefined)	> 200 µg/mL	10 µg/mL (≈ 22 µM)	0.73 µg/mL (≈ 1.6 µM)	93 µg/mL (≈ 204 µM)
CC1(C)SC2C(NC(=O)CCON=C3c4ccccc4-c4ccccc43)C(=O)N2[C@H]1C(=O)[O-].[K+] (some centres undefined)	> 200 µg/mL	8 µg/mL	0.06 µg/mL	131 µg/mL
CC1(C)S[C@@H]2[C@H](NC(=O)[C@H](N)c3ccccc3)C(=O)N2[C@H]1C(=O)O [AMPICILLIN]	> 200 µg/mL	10 µg/mL (≈ 28.6 µM)	0.04 µg/mL (≈ 0.114 µM)	1 µg/mL (≈ 2.86 µM)
CC1=C(C(=O)O)N2C(=O)[C@@H](NC(=O)[C@H](N)c3ccccc3)[C@H]2SC1 [CEPHALEXIN ANHYDROUS]	> 100 µg/mL	20 µg/mL (≈ 57.6 µM)	0.4 µg/mL (≈ 1.15 µM)	2 µg/mL (≈ 5.76 µM)
CC1(C)S[C@@H]2[C@H](NC(=O)Cc3ccccc3)C(=O)N2[C@H]1C(=O)O [PENICILLIN G]	> 200 µg/mL	79 µg/mL (≈ 236 µM)	0.05 µg/mL (≈ 0.15 µM)	71 µg/mL (≈ 212 µM)
[3H]C([3H])([3H])N1C(=O)CN=C(c2ccc(Cl)cc2)c2cc(Cl)ccc21 [[3H]-RO-54864]	> 200 µg/mL	7.3 µg/mL (≈ 22.4 µM)	0.59 µg/mL (≈ 1.81 µM)	71 µg/mL (≈ 218 µM)
